Experiments:
[1] = Binding affinity at poly (dGdC). poly (dGdC) dsDNA polynucleotide by competition dialysis assay
Triticum aestivum = assay: Binding affinity at wheat germ single stranded RNA by competition assay
Escherichia coli = assay: Binding affinity at Escherichia coli double stranded DNA by competition dialysis assay
[2] = Binding affinity at poly(dA).poly(dT) dsDNA polynucleotide by competition dialysis assay
DNA = assay: Binding affinity at calf thymus double stranded DNA by competition dialysis assay; format: nucleic-acid assay; settings: Bos taurus
[3] = Binding affinity at polyA.Poly U dsRNA polynucleotide by competition dialysis assay
[4] = Binding affinity at poly (dAdT). poly (dAdT) dsDNA polynucleotide by competition dialysis assay
[5] = Binding affinity at polyA ssRNA by competition dialysis assay

For COC(=O)C12OC(C(=O)OC)(C3C4CC(C5C(=O)N(CCNc6c7ccccc7nc7ccccc67)C(=O)C45)C31)C1C3CC(C12)C1C3C2(C(=O)OC)OC1(C(=O)OC)C1C3CC(C4C(=O)N(CCNc5c6ccccc6nc6ccccc56)C(=O)C34)C12 (stereo unspecified), the Kapp [1] was 26.4 10^3/M, the Kapp (Triticum aestivum) was 5.33 10^3/M and the Kapp (Escherichia coli) was 25.7 10^3/M. For the same compound, the Kapp [2] was 23.7 10^3/M, the Kapp (DNA) was 30.4 10^3/M and the Kapp [3] was 25.5 10^3/M. The Kapp [4] was 31.7 10^3/M and the Kapp [5] was 1.47 10^3/M.

With COC(=O)C12OC(C(=O)OC)(C3C4CC(C5C(=O)N(CCNC(=O)c6cccc7cc8ccccc8nc67)C(=O)C45)C31)C1C3CC(C4C(=O)N(CCNC(=O)c5cccc6cc7ccccc7nc56)C(=O)C34)C12 (stereo unspecified) the Kapp [1] was 9.6 10^3/M, the Kapp (Triticum aestivum) was 0.53 10^3/M and the Kapp (Escherichia coli) was 6.8 10^3/M. For the same compound, the Kapp [2] was 6.8 10^3/M, the Kapp (DNA) was 16 10^3/M and the Kapp [3] was 8.27 10^3/M. The Kapp [4] was 13.9 10^3/M and the Kapp [5] was 0.53 10^3/M.

For O=C1C2C3C=CC(C3)C2C(=O)N1CCNc1c2ccccc2nc2ccccc12 (stereo unspecified), the Kapp [1] was 3.47 10^3/M, the Kapp (Triticum aestivum) was 2.4 10^3/M and the Kapp (Escherichia coli) was 3.47 10^3/M. The Kapp [2] was 0.53 10^3/M, the Kapp (DNA) was 6.27 10^3/M and the Kapp [3] was 1.47 10^3/M. For the same compound, the Kapp [4] was 12.1 10^3/M and the Kapp [5] was 0 10^3/M.

For FC(F)(F)C12OC(C(F)(F)F)(C3C4CC(C5CN(CCNc6c7ccccc7nc7ccccc67)CC54)C31)C1C3CC(C4CN(CCNc5c6ccccc6nc6ccccc56)CC43)C12 (stereo unspecified), the Kapp [1] was 27.6 10^3/M, the Kapp (Triticum aestivum) was 0.53 10^3/M and the Kapp (Escherichia coli) was 19.1 10^3/M. The Kapp [2] was 19.6 10^3/M, the Kapp (DNA) was 20.3 10^3/M and the Kapp [3] was 0.53 10^3/M. For the same compound, the Kapp [4] was 29.5 10^3/M and the Kapp [5] was 1.73 10^3/M.

For COC(=O)C12OC(C(=O)OC)(C3C4CC(C5C(=O)N(CCNc6c7ccccc7nc7ccccc67)C(=O)C45)C31)C1C3CC(C4C(=O)N(CCNc5c6ccccc6nc6ccccc56)C(=O)C34)C12 (stereo unspecified), the Kapp [1] was 28.4 10^3/M, the Kapp (Triticum aestivum) was 8.8 10^3/M and the Kapp (Escherichia coli) was 32.8 10^3/M. For the same compound, the Kapp [2] was 16.4 10^3/M, the Kapp (DNA) was 30.4 10^3/M and the Kapp [3] was 19.2 10^3/M. The Kapp [4] was 38.9 10^3/M and the Kapp [5] was 2.93 10^3/M.

In the case of COC(=O)C12OC(C(=O)OC)(C3C4CC(C5C(=O)N(CCNc6c7ccccc7nc7ccccc67)C(=O)C45)C31)C1C3CC(C4C(=O)N(CCN5C(=O)c6cccc7cccc(c67)C5=O)C(=O)C34)C12 (stereo unspecified), the Kapp [1] is reported as 8.13 10^3/M, the Kapp (Triticum aestivum) is reported as 7.6 10^3/M and the Kapp (Escherichia coli) is reported as 14.9 10^3/M. The Kapp [2] was 3.87 10^3/M, the Kapp (DNA) was 8.13 10^3/M and the Kapp [3] was 0.8 10^3/M. For the same compound, the Kapp [4] was 14.4 10^3/M and the Kapp [5] was 0.8 10^3/M.

In the case of COC(=O)C12OC(C(=O)OC)(C3C4CC(C5C(=O)N(CCNC(=O)c6cccc7cc8ccccc8nc67)C(=O)C45)C31)C1C3CC(C4C(=O)N(CCNc5c6ccccc6nc6ccccc56)C(=O)C34)C12 (stereo unspecified), the Kapp [1] is reported as 15.6 10^3/M, the Kapp (Triticum aestivum) is reported as 0.27 10^3/M and the Kapp (Escherichia coli) is reported as 12.9 10^3/M. For the same compound, the Kapp [2] was 0.8 10^3/M, the Kapp (DNA) was 23.1 10^3/M and the Kapp [3] was 0.27 10^3/M. The Kapp [4] was 29.5 10^3/M and the Kapp [5] was 0.27 10^3/M.

From ChEMBL document CHEMBL1139855, “Molecular recognition of DNA by rigid [N]-polynorbornane-derived bifunctional intercalators: synthesis and evaluation of their binding properties” (J Med Chem, 2007)
